Results as given in publication PMC5391474, “Investigation of the Role of Protein Kinase D in Human Rhinovirus Replication” (Journal of Virology, 2017).

How the values were obtained:
Experiment in all cases: biochemical
Design in all cases: in vitro kinase selectivity panel, protein and lipid kinases, single concentration, ATP at Km
Settings in all cases: ATP at Km
CDK5/p35(h) = target: T1, CDK5/p35(h) (Homo sapiens, UniProt Q00535)
T1 construct: p35
In short: (§1)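 Single-point screen against a protein and lipid kinase panel: inhibitor at 1 μM. ATP concentration for every kinase equivalent to its Km.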

CHKA = CHKA (Homo sapiens, UniProt P35790)
In short: as §1

CSK(h) = CSK(h) (Homo sapiens, UniProt P41240)
In short: as §1

EGFR(L861Q)(h) = EGFR(L861Q)(h) (Homo sapiens, UniProt P00533, L861Q)
In short: as §1

FGFR4(h) = FGFR4(h) (Homo sapiens, UniProt P22455)
In short: as §1

GSK3β(h) = target: T2, GSK3β(h) (Homo sapiens, UniProt P49841)
T2 construct: gene GSK3B
In short: as §1

IR(h) = target: T3, IR(h) (Homo sapiens, UniProt P06213)
T3 construct: gene INSR
In short: as §1

PAK2(h) = PAK2(h) (Homo sapiens, UniProt Q13177)
In short: as §1

PIK4A = target: T4, PIK4A (Homo sapiens, UniProt P42356)
T4 construct: gene PI4KA
In short: as §1

PIK4B = target: T5, PIK4B (Homo sapiens, UniProt Q9UBF8)
T5 construct: gene PI4KB
In short: as §1

PIP4K2A = PIP4K2A (Homo sapiens, UniProt P48426)
In short: as §1

PKCβII(h) = target: T6, PKCβII(h) (Homo sapiens, UniProt P05771)
T6 construct: gene PRKCB; isoform beta II
In short: as §1

PKCδ(h) = target: T7, PKCδ(h) (Homo sapiens, UniProt Q05655)
T7 construct: gene PRKCD
In short: as §1

PKCε(h) = target: T8, PKCε(h) (Homo sapiens, UniProt Q02156)
T8 construct: gene PRKCE
In short: as §1

PKCζ(h) = target: T9, PKCζ(h) (Homo sapiens, UniProt Q05513)
T9 construct: gene PRKCZ
In short: as §1

PKD (PKD1) = target: T10, PKD (PKD1) (Homo sapiens, UniProt Q15139)
T10 construct: gene PRKD1
In short: as §1

PRK2(h) = target: T11, PRK2(h) (Homo sapiens, UniProt Q16513)
T11 construct: gene PKN2
In short: as §1

c-RAF(h) = target: T12, c-RAF(h) (Homo sapiens, UniProt P04049)
T12 construct: gene RAF1
In short: as §1

T2 sequence (P49841 whole entry): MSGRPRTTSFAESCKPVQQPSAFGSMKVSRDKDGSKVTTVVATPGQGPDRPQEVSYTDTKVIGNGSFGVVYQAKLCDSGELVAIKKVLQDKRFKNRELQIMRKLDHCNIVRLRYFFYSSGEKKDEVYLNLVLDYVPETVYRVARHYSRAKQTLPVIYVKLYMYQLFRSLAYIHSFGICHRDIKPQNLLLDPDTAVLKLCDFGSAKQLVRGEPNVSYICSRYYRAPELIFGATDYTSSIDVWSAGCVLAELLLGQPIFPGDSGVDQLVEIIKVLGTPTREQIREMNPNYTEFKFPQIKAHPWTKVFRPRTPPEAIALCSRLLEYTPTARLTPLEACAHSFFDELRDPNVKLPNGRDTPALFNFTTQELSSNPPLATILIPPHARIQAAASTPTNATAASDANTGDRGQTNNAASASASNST
CHKA, sequence (P35790 whole entry): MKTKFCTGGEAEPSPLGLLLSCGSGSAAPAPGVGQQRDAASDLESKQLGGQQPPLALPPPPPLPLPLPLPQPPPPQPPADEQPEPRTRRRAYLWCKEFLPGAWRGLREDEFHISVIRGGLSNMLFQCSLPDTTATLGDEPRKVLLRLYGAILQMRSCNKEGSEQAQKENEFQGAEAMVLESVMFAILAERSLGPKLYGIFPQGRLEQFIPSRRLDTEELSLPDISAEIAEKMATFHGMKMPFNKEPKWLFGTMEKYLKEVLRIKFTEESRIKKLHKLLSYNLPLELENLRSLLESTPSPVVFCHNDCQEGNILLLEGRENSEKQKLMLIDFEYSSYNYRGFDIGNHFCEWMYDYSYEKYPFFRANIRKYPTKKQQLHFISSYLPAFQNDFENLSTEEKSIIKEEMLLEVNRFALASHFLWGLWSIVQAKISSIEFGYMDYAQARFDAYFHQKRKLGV
T10 sequence (Q15139 whole entry): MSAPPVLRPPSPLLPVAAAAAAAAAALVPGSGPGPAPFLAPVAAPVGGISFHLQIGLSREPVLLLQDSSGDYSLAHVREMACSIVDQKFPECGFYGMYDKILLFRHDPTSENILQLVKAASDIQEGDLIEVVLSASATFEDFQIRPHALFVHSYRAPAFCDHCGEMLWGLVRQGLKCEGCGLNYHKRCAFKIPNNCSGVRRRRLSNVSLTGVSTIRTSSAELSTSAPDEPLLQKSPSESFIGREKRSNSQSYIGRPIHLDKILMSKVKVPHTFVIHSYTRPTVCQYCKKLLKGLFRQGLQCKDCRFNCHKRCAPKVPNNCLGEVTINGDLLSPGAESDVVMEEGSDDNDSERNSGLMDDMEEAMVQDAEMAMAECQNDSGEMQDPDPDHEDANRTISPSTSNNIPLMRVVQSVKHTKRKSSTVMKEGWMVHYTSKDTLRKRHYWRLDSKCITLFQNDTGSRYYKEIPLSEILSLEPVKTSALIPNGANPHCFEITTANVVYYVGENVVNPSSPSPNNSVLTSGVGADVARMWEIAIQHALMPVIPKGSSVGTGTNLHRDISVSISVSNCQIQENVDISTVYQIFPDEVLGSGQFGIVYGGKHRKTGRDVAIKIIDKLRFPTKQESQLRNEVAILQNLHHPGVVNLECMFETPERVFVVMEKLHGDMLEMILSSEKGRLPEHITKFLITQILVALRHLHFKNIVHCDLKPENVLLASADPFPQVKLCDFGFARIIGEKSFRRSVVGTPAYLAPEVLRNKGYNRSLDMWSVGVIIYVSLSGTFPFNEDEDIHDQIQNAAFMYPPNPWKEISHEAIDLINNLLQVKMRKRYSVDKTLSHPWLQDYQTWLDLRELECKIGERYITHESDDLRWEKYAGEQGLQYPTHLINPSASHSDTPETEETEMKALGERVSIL
EGFR(L861Q)(h), sequence (P00533 whole entry L861Q): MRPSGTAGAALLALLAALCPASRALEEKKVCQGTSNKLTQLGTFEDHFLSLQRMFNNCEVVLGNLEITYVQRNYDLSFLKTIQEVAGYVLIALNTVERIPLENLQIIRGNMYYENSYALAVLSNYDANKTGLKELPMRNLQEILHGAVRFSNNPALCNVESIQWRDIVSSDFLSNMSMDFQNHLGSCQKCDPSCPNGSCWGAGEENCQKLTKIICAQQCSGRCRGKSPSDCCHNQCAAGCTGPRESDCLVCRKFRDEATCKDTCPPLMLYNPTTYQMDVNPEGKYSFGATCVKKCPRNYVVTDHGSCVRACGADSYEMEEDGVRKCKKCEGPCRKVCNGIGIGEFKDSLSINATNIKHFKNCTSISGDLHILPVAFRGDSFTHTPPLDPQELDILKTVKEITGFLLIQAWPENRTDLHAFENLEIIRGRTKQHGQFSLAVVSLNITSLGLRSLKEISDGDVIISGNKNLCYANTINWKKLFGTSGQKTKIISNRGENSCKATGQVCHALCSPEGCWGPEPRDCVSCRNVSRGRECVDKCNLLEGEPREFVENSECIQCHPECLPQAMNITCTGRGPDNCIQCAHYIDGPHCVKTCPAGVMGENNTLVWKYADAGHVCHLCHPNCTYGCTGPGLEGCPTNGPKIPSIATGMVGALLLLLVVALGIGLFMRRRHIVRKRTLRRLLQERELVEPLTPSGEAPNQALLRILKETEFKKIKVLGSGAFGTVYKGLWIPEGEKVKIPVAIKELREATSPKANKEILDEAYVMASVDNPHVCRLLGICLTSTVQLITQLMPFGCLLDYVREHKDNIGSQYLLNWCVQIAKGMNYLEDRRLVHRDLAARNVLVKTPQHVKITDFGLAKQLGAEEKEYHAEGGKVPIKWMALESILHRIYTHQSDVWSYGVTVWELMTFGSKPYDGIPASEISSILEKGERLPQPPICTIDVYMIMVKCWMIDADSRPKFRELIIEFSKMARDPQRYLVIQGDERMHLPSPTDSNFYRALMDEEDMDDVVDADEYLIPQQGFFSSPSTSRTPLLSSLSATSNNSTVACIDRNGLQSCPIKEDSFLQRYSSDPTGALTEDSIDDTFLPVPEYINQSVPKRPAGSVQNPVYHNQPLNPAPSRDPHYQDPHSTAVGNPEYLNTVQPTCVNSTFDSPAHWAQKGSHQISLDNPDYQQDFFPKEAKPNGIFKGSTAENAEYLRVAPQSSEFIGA
T4 sequence (P42356 whole entry): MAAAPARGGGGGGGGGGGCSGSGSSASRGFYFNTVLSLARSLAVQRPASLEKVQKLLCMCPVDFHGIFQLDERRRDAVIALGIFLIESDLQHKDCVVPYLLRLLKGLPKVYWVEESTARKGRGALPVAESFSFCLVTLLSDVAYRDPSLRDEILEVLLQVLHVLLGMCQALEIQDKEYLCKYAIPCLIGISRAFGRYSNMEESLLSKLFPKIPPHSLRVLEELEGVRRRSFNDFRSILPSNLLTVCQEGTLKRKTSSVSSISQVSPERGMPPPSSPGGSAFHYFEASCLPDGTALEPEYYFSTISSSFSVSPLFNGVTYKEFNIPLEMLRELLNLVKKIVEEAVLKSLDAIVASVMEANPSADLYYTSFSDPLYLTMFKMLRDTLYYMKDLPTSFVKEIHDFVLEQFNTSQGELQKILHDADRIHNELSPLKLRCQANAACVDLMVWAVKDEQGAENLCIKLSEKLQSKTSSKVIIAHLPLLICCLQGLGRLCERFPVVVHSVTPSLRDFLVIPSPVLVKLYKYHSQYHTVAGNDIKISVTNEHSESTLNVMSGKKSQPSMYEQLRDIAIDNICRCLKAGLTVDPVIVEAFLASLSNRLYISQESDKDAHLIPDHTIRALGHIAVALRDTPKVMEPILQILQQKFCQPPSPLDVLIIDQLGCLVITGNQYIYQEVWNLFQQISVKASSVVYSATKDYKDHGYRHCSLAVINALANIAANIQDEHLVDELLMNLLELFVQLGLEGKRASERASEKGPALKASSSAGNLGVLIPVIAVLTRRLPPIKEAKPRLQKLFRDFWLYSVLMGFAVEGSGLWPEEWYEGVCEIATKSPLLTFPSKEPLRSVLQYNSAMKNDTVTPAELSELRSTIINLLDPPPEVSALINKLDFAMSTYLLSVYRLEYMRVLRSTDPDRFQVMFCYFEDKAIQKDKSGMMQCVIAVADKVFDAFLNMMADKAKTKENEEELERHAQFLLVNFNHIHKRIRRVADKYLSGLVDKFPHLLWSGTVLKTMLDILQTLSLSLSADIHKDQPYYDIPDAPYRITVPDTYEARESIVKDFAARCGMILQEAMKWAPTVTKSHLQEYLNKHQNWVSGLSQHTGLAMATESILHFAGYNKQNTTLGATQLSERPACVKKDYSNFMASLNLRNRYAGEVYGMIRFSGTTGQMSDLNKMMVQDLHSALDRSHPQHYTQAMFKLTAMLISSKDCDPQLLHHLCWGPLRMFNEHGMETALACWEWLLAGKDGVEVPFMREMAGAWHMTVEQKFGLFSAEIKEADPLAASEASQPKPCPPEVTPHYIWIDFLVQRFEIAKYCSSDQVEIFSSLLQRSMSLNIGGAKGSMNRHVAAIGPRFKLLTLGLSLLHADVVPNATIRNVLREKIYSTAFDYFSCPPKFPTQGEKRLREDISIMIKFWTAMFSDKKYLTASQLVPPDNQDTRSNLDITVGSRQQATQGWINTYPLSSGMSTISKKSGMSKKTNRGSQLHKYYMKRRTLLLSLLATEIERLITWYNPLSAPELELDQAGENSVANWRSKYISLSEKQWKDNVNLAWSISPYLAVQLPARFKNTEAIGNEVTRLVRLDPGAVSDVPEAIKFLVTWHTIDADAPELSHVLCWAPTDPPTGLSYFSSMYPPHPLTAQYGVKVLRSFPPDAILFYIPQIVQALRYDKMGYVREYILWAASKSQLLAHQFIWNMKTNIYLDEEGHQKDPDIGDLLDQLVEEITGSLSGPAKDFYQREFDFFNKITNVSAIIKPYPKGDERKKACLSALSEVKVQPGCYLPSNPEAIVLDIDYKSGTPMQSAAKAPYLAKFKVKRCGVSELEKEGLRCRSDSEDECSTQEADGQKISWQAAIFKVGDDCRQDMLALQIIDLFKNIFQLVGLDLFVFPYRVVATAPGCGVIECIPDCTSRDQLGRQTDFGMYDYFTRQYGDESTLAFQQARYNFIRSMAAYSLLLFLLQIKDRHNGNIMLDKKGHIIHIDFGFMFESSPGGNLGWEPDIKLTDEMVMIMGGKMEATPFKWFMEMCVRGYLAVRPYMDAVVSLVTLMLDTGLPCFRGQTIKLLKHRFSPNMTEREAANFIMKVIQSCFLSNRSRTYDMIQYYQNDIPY

Question: Which inhibition at 1 µM (CDK5/p35(h)) does the source give for `CC[C@@H](N)CNc1ccnc(-c2cc(-c3cnn(C)c3)ccc2O)n1` [CRT0066101] here?
Answer: 95%

Question: What about the inhibition at 1 µM (CHKA) of the same molecule?
Answer: 1%

Question: What about the inhibition at 1 µM (CSK(h)) of the same molecule?
Answer: 7%

Question: And the inhibition at 1 µM (EGFR(L861Q)(h))?
Answer: 10%

Question: What about the inhibition at 1 µM (FGFR4(h)) of the same molecule?
Answer: -2%

Question: What about the inhibition at 1 µM (GSK3β(h)) of the same molecule?
Answer: 18%

Question: What about the inhibition at 1 µM (IR(h)) of the same molecule?
Answer: -22%

Question: What about the inhibition at 1 µM (PAK2(h)) of the same molecule?
Answer: 9%

Question: What about the inhibition at 1 µM (PIK4A) of the same molecule?
Answer: -11%

Question: And the inhibition at 1 µM (PIK4B)?
Answer: 33%

Question: What about the inhibition at 1 µM (PIP4K2A) of the same molecule?
Answer: -22%

Question: What about the inhibition at 1 µM (PKCβII(h)) of the same molecule?
Answer: -1%

Question: And the inhibition at 1 µM (PKCδ(h))?
Answer: 28%

Question: What about the inhibition at 1 µM (PKCε(h)) of the same molecule?
Answer: 12%

Question: And the inhibition at 1 µM (PKCζ(h))?
Answer: -8%

Question: And the inhibition at 1 µM (PKD (PKD1))?
Answer: 98%

Question: What about the inhibition at 1 µM (PRK2(h)) of the same molecule?
Answer: 77%

Question: And the inhibition at 1 µM (c-RAF(h))?
Answer: 4%
